Test results: US10167262B2, “Herbicidal substituted 3-arylpyrazoles” (FMC CORPORATION, priority 2014, dated 2019)
“And” between values parts separate entries of the source, which are not always exact repeats. Equal entries are not always repeated.

Experiments:
Experiment in all cases: Test H postemergence mixture test of compound 39 with commercial herbicides, observed and Colby expected effect 0-100
Format in all cases: in vivo
Conditions in all cases: Cmpd 39 alone, 14 days after treatment
[1] = test system: Kochia (KCHSC, Kochia scoparia)
Description: (§1) This test evaluated the effect of mixtures of compound 39 with three commercial herbicides on five plant species. Seeds of plant species selected from corn (ZEAMD, Zea mays), soybean (GLXMA, Glycine max), palmer pigweed (AMAPA, Amaranthus palmeri), waterhemp (common waterhemp, AMATA, Amaranthus rudis), and Kochia (KCHSC, Kochia scoparia) were planted in pots containing Redi-Earth® planting medium (Scotts Company, 14111 Scottslawn Road, Marysville, Ohio 43041) comprising spaghnum peat moss, vermiculite, wetting agent and starter nutrients and treated with postemergence applications of test chemicals formulated in a non-phytotoxic solvent mixture which included a surfactant and applied using a volume of 299 L/ha. Each treatment was replicated four times. Treated plants and controls were maintained in a greenhouse using supplemental lighting to maintain a photoperiod of about 16 h; daytime and nighttime temperatures were about 24-30° C. and 19-21° C., respectively. Nutrients were applied using a balanced fertilizer applied through the watering system. At 14 days after treatment, all species were compared to controls and visually evaluated. Plant response ratings were calculated as the mean of the four replicates, are summarized in Tables H1 through H6, and are based on a scale of 0 to 100 where 0 is no effect and 100 is complete control. A dash (-) response means no test result.
(§2) Colby's Equation was used to determine the herbicidal effects expected from the mixtures. Colby's Equation (Colby, S. R. “Calculating Synergistic and Antagonistic Responses of Herbicide Combinations,” Weeds, 15(1), pp 20-22 (1967)) calculates the expected additive effect of herbicidal mixtures and for two active ingredients is of the form: Pa+b=Pa+Pb−(PaPb/100) • where • Pa+b is the percentage effect of the mixture expected from additive contribution of the individual components: • Pa is the observed percentage effect of the first active ingredient at the same use rate as in the mixture, and • Pb is the observed percentage effect of the second active ingredient at the same use rate as in the mixture. In the following Tables, rates are shown in grams of active ingredient per hectare (g a.i./ha); “Obsd.” is the observed effect. “Exp.” is the expected effect calculated from Colby's Equation.

corn (ZEAMD, Zea mays) = test system: corn (ZEAMD, Zea mays)
Description: as §1, §2

[2] = test system: palmer pigweed (AMAPA, Amaranthus palmeri)
Description: as §1, §2

[3] = test system: soybean (GLXMA, Glycine max)
Description: as §1, §2

[4] = test system: waterhemp (common waterhemp, AMATA, Amaranthus rudis)
Description: as §1, §2

SMILES: C#CCn1cc(C(=O)c2ccccc2)c(-c2cc(Cl)cc(Cl)c2)n1 [Compound 39, [3-(3,5-dichlorophenyl)-1-(2-propyn-1-yl)-1H-pyrazol-4-yl]phenylmethanone]
- KCHSC Obsd. (observed effect) ([1]; 16 g a.i./ha): 47
- KCHSC Obsd. (observed effect) ([1]; 31 g a.i./ha): 60 and 47
- KCHSC Obsd. (observed effect) ([1]; 62 g a.i./ha): 64
- ZEAMD Obsd. (observed effect) (corn (ZEAMD, Zea mays); 16 g a.i./ha): 0
- ZEAMD Obsd. (observed effect) (corn (ZEAMD, Zea mays); 31 g a.i./ha): 0
- ZEAMD Obsd. (observed effect) (corn (ZEAMD, Zea mays); 62 g a.i./ha): 0
- AMAPA Obsd. (observed effect) ([2]; 16 g a.i./ha): 55
- AMAPA Obsd. (observed effect) ([2]; 31 g a.i./ha): 86 and 78
- AMAPA Obsd. (observed effect) ([2]; 62 g a.i./ha): 79 and 76
- GLXMA Obsd. (observed effect) ([3]; 16 g a.i./ha): 0
- GLXMA Obsd. (observed effect) ([3]; 31 g a.i./ha): 0
- GLXMA Obsd. (observed effect) ([3]; 62 g a.i./ha): 0
- AMATA Obsd. (observed effect) ([4]; 16 g a.i./ha): 75
- AMATA Obsd. (observed effect) ([4]; 31 g a.i./ha): 88 and 83
- AMATA Obsd. (observed effect) ([4]; 62 g a.i./ha): 79
